# PMC6445195, “Synthesis and biological evaluation of aminomethyl and alkoxymethyl derivatives as carbonic anhydrase, acetylcholinesterase and butyrylcholinesterase inhibitors” (Journal of Enzyme Inhibition and Medicinal Chemistry, 2017)
# Values joined by “and” are separate entries in the source; they are usually repeats but may differ in a detail not shown here. Equal values may be shown once. Read-outs that look alike come from different tables or passages of the source.
# What was measured:
# Test in all cases: biochemical
# Type in all cases: biochemical
# hCA I = target: T1, hCA I (Homo sapiens, UniProt P00915)
# T1 construct: from tissue; host or cells: fresh human erythrocytes
# Method: (§1) CA activity was determined using the previously described spectrophotometric procedure of Verpoorte et al. as explained previously.[21] ^, [57] ^, [58] […] The quantity of protein was measured according to the previously described by Bradford method.[61–64] and bovine serum albumin was used as the standard.[65] ^, [66] After the purification method of the CA isoforms, samples were subjected to SDS polyacrylamide gel electrophoresis (SDS-PAGE).[67–69] […] The IC50 values were calculated from activity (%) against compounds inhibition.[72–74] Three various concentrations were used to calculate Ki values.[75–77]
# hCA II = target: T2, hCA II (Homo sapiens, UniProt P00918)
# T2 construct: from tissue; host or cells: fresh human erythrocytes
# Method: as §1
# AChE = AChE (Homo sapiens, UniProt P22303); conditions: for AChE/BChE (proportion of AChE to BChE, selectivity): ratio of Ki AChE to Ki BChE
# Method: (§2) Acetylthiocholine iodide (AChI) and butyrylthiocholine iodide (BChI) were used as substrates for the reaction. 5,5′-Dithio-bis(2-nitro-benzoic)acid (DTNB) was used for the measurement of the AChE/BChE activities. Briefly, 1.0 ml of Tris/HCl buffer (1.0 M, pH 8.0), and 10 µL of sample solution were dissolved in deionized water at different concentrations and 50 µL AChE/BChE solution were mixed and incubated for 10 min at 25 °C. Next 50 µL of DTNB (0.5 mM) was added. The reaction was then initiated by the addition of 50 µL of AChI or BChI.
# BChE = BChE (Homo sapiens, UniProt P06276)
# Method: as §2
# [1] = purified from human erythrocytes, PNA substrate, 22 °C, read-out: IC50 hCA I
# [2] = three concentrations used, read-out: Ki hCA I
# [3] = purified from human erythrocytes, PNA substrate, 22 °C, read-out: IC50 hCA II
# [4] = three concentrations used, read-out: Ki hCA II
# [5] = Ellman, Tris/HCl pH 8.0, 25 °C, read-out: IC50 AChE
# [6] = Ellman, Tris/HCl pH 8.0, 25 °C, read-out: IC50 BChE
# AChE, sequence (P22303 32-614): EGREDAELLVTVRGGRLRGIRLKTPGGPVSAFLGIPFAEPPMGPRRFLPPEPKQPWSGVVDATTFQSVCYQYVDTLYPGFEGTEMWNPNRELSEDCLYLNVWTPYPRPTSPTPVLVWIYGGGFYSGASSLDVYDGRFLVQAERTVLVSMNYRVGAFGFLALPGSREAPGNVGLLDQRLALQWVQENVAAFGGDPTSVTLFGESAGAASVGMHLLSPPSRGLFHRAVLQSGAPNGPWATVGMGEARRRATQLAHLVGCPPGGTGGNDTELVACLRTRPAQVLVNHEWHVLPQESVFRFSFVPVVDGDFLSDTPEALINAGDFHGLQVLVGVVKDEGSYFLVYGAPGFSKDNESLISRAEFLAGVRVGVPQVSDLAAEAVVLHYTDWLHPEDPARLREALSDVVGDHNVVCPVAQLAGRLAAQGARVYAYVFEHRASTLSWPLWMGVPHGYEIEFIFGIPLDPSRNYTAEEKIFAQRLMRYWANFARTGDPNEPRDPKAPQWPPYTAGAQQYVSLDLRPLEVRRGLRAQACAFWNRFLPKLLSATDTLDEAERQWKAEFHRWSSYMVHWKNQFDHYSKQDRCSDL
# T1 sequence (P00915 whole entry): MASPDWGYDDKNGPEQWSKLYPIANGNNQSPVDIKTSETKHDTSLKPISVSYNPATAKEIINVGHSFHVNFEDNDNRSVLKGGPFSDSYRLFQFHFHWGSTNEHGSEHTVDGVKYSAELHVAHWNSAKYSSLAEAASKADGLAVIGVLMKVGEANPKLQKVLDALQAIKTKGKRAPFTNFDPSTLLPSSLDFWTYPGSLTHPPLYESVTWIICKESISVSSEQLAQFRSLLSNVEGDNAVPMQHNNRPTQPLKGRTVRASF
# BChE, sequence (P06276 29-602): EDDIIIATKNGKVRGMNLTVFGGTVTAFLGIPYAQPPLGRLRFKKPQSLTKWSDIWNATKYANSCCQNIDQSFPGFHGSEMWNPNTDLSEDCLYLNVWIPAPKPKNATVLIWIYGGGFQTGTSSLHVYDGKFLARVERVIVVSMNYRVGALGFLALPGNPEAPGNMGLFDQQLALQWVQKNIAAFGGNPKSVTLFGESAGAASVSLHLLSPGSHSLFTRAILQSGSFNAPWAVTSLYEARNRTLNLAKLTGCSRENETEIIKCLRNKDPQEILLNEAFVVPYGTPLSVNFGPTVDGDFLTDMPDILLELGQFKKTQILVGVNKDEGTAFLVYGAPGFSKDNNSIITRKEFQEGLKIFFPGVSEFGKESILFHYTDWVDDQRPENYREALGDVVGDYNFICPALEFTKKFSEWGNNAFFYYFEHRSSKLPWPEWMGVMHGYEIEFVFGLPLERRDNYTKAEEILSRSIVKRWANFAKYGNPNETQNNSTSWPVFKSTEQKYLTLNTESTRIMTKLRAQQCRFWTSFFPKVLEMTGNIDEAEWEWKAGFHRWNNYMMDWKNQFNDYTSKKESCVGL
SMILES,IC50 (hCA I; [1]) [nM],Ki (hCA I; [2]) [nM],IC50 (hCA II; [3]) [nM],Ki (hCA II; [4]) [nM],IC50 (AChE; [5]) [nM],"AChE/BChE (proportion of AChE to BChE, selectivity) (AChE)",Ki (AChE; read-out: Ki AChE) [nM],IC50 (BChE) [nM],Ki (BChE) [nM],IC50 (BChE; [6]) [nM],Ki (BChE; read-out: Ki BChE) [nM],fold of inhibitory activity against AChE/BChE than that of TAC (AChE; AChE/BChE selectivity relative to TAC) [fold],IC50 (hCA I) [nM],Ki (hCA I) [nM],IC50 (hCA II) [nM],Ki (hCA II) [nM],IC50 (AChE) [nM],Ki (AChE) [nM]
"CC(C)OCNc1nccs1 [Compound 16, 2-isopropoxymethylaminothiazole]",156,132 ± 30,167,162 ± 29,76,0.763,42 ± 4,127,55 ± 12,–,–,–,–,–,–,–,–,–
"S=c1oc2ccccc2n1CN1CCOCC1 [Compound 8, N-morfolinomethylbenzoxazoline-2-thion]",94,58 ± 15,119,121 ± 40,38,1.391,32 ± 6,–,–,48,23 ± 3,–,–,–,–,–,–,–
"S=c1sc2ccccc2n1CN1CCOCC1 [Compound 1, N-oxazinomethylbenzothiazoline-2-thione]",79,108 ± 35,104,81 ± 19,51,0.812,26 ± 5,–,–,88,32 ± 7,–,–,–,–,–,–,–
"COCCOCNc1nccs1 [Compound 15, 2-(methoxyethoxy) methylaminothiazole]",128,118 ± 27,158,193 ± 79,43,0.555,25 ± 3,–,–,109,45 ± 14,–,–,–,–,–,–,–
"S=c1oc2ccccc2n1CN1CCOC1 [Compound 9, N-oxazolidinomethylbenzoxazoline-2-thione]",103,76 ± 20,121,135 ± 33,62,0.975,78 ± 36,–,–,84,80 ± 9,–,–,–,–,–,–,–
"CCN(CC)Cn1c(=S)oc2ccccc21 [Compound 6, N-diethylaminomethylbenzoxazoline-2-thione]",102,123 ± 48,118,115 ± 28,44,1.500,45 ± 11,80,30 ± 3,–,–,–,–,–,–,–,–,–
"S=c1sc2ccccc2n1CN1CCCCC1 [Compound 4, N-Piperidinomethylbenzothiazoline-2-thione]",86,86 ± 40,99,105 ± 25,36,0.439,18 ± 2,82,41 ± 13,–,–,–,–,–,–,–,–,–
"COCNc1nccs1 [Compound 17, 2-(methoxy)methylaminothiazole]",142,157 ± 38,187,215 ± 40,80,1.285,54 ± 10,144,42 ± 20,–,–,–,–,–,–,–,–,–
"COCCOCn1c(=S)oc2ccccc21 [Compound 14, N-(methoxyethoxy)methyl-benzoxazoline-2-thione]",112,119 ± 53,128,142 ± 56,38,0.388 and 0.383,23 ± 4,68,60 ± 13,–,–,2.22,–,–,–,–,–,–
"CCN(CC)Cn1c(=S)sc2ccccc21 [Compound 5, N-diethylaminomethylbenzothiazoline-2-thione]",–,–,–,–,–,0.666,–,83,51 ± 9,–,–,–,82,70 ± 15,98,100 ± 24,52,34 ± 9
"CC(C)OCn1c(=S)oc2ccccc21 [Compound 13, N-isopropoxymethylbenzoxazoline-2-thione]",105,90 ± 23,122,94 ± 37,63,0.971,34 ± 5,83,35 ± 4,–,–,–,–,–,–,–,–,–
